No end group written: not given here.
Columns and labels:
[1] = system: VIP; conditions: in man; cited from earlier work
[2] = system: TT; parameters: species or system mice (C57/BL6); conditions: mouse, in vivo
[3] = circulating GLP-1; inactivated by N-terminal cleavage by DPP-IV; cited from earlier work
[4] = system: tetanus toxin; parameters: species or system mice (C57/BL6); conditions: mouse, in vivo
[5] = system: tetanus toxoid (TT); parameters: species or system mice (C57/BL6); conditions: mouse, in vivo

Row | Substance | VIP agonist activity [1] | range of anti-TT IgG titer [2] | half life [3] | paralysis after tetanus toxin challenge [4] | survivors after tetanus toxin challenge [4] | anti-TT serum IgA response (GMT) [5]
1 | VIP 2-28: Gastrointestinal peptide, residues 2-28 of Vasoactive Intestinal Peptide (SDAVFTDNYTRLRKQMAVKKYLNSILN; ends and bridges not checked; UniProt P01282 126-152, looked up, fragment) | full VIP agonist | – | – | – | – | –
2 | GLP-1 (HDRHAGTTSDVSSYGAAKAWVKGRG; listed as Homo sapiens) | – | 16,384-131,072 | several minutes | no sign of paralysis | 8/8 | 959
